Here are results for seven molecules from US20180066327A1, “Methods to Accelerate Wound Healing in Diabetic Subjects” (Joslin Diabetes Center, Inc., priority 2015, published 2018).

Format in all cases: cell-based, human
Assay [1] relates to Medalist fibroblasts. As to the kind of experiment: VEGF protein secreted to the medium (ELISA). The source says:
Skin were obtained from 26 Medalists with various complications and from 7 age-matched non-diabetic controls during post-mortem period. Primary fibroblast cultures were derived from human skin samples, sustained in DMEM (10-027, Cellgro Inc.) supplemented with 10% heat inactivated fetal bovine serum, over a period of 4 weeks, in a 6-well plate, with media supplementation every other day. Subsequently, as fibroblasts emerged from the primary explant, a brief trypsinization (0.25% Trypsin) was used to separate and further expand the cells in a 10 cm^2 plate. In all experiments fibroblasts were used between passages 2-5.
(§1) Fibroblasts with passage≦5 were grown and expanded in 10 cm plate with DMEM supplemented with 10% FBS. Cells were stimulated with the conditions and compounds as indicated after overnight starvation in DMEM with 0.1% BSA without FBS. Cells were lysed and protein amounts were measured with BCA kit (Bio-Rad, Hercules, Calif.). Protein lysates (20-30 μg) were separated by SDS-PAGE, transferred, blocked and detected as we described before (Park et al., Mol Cell Biol. 2013 August; 33(16):3227-41). The signal intensity was quantified using ImageJ software (SynGene, Frederick, Md.). For immune precipitation, tissue lysates were incubated with the appropriate antibodies followed by the addition of protein A/G Sepharose beads (Santa Cruz Biotechnology, Inc., Santa Cruz, Calif.). The precipitated proteins were subjected to SDS-PAGE followed by immunoblotting with the appropriate antibodies as described before (Park et al., Mol Cell Biol. 2013 August; 33(16):3227-41).
The transfection of siRNA was performed using the Ambion Silencer Select Validated siRNA kit for primary cells (Ambion by Life Technology, Carlsband, Calif.), in 60-70% confluent fibroblast. For evaluating insulin's effect on VEGF production, cells were washed twice with PBS, and starved overnight with DMEM containing 1% BSA. Insulin (100 nM) was added to each for additional 16 h. After incubation, media were collected for VEGF measurement by ELISA and the cell lysate were collected for measuring protein concentration.
Protein levels of VEGF in the medium were measured using Quantikine R&D System kit (Minneapolis, Minn.). This kit determines mainly VEGF165. Glycated hemoglobin (HbA1c) was determined by HPLC (Tosoh G7 and 2.2, Tokyo, Japan). Serum creatinine was determined by spectrophotometry. Urine albumin and creatinine were determined by turbidimetric methods. Serum C-peptide was determined by RIA (Beckman Coulter, Inc, Fullerton, Calif.).
For orientation: An ELISA detects its analyte on a solid surface through an enzyme-linked reagent.

For assay [2], the system named is Medalist fibroblasts. As to the kind of experiment: VEGF protein secreted to the medium (ELISA). To be noted: fibroblasts from Medalists compared to controls; 10 ng/ml TGF for 24 hours.
The test system of assay [3] is control fibroblasts. As to the kind of experiment: VEGF mRNA by real-time PCR. To be noted: fibroblasts from controls, 100 nM insulin. As to the method: (§2) Real-time PCR was performed to evaluate mRNA expressions of VEGF, PDGF-B, Fibronectin, and PKCδ in cultured fibroblast and mice granulation tissue as we described before (Geraldes et al., Nat Med. 2009 November; 15(11):1298-306). PCR primers and probes are detailed in Table A. Human 36B4 or 18S ribosomal RNA expressions as indicated were used for normalization.

Assay [4] deals with Medalist fibroblasts. Put plainly: VEGF mRNA by real-time PCR. Particulars: fibroblasts from Medalists, 100 nM insulin. Here is the method:
as §2
On the technique in general: In qPCR the cycle at which signal appears reflects the starting amount.

For assay [5], the system named is control fibroblasts. As to the kind of experiment: VEGF protein secreted to the medium (ELISA).
Assay [6] relates to control fibroblasts. Put plainly: p-Tyr of insulin receptor beta subunit immunoblot. To be noted: controls, 100 nM insulin. Here is the method: as §1
In general terms: A western blot detects proteins with antibodies after separation by electrophoresis.

The test system of assay [7] is Medalist fibroblasts. Put plainly: p-Tyr of insulin receptor beta subunit immunoblot. To be noted: 100 nM insulin. Here is the method:
as §1

Assay [8] relates to control fibroblasts. As to the kind of experiment: Scratch wound migration assay. To be noted: 10 ng/ml PDGF-BB or 100 nM insulin for 12 h. Here is the method:
(§3) Scratch wound migration assay—100% Confluent starved Medalist or control fibroblasts wounded, followed by incubation with 10 ng/ml PDGF-BB or 100 nM insulin for 12 hours. Phase contrast images of wounded areas were taken at time 0, 4, 6, 8 and 12 hours after stimulation, and migration was determined as described before (Ito et al., Am J Physiol Lung Cell Mol Physiol. 2014 Jul. 1; 307(1):L94-105).

The subject of assay [9] is Medalist fibroblasts. Put plainly: Scratch wound migration assay. Particulars: 10 ng/ml PDGF-BB or 100 nM insulin for 12 h. As to the method:
as §3

Assay [10] relates to control fibroblasts. Put plainly: IRS1 tyrosine phosphorylation immunoblot. To be noted: fibroblasts of controls, 100 nM insulin. As to the method:
as §1

Assay [11] concerns Medalist fibroblasts. As to the kind of experiment: IRS1 tyrosine phosphorylation immunoblot. To be noted: 100 nM insulin. Here is the method: as §1
Assay [12] deals with control fibroblasts. As to the kind of experiment: p-AKT (Ser473) immunoblot. To be noted: for p-AKT increase compared to untreated cells: 100 nM insulin or 10 ng/ml PDGF-BB for 10 minutes. Here is the method:
as §1

Assay [13] deals with Medalist fibroblasts. Put plainly: p-AKT (Ser473) immunoblot. To be noted: for p-AKT increase compared to untreated cells: Medalist fibroblasts, 100 nM insulin or 10 ng/ml PDGF-BB for 10 minutes; for p-AKT increase: 100 nM insulin 10 minutes. Here is the method: as §1
Where [14] appears, read: fibroblasts of Medalists with CVD.
Where [15] appears, read: fibroblasts of Medalists without CVD.

As to `CN(C)CCCn1cc(C2=C(c3c[nH]c4ccccc34)C(=O)NC2=O)c2ccccc21` [GFX, 2[1-(3-dimethylaminopropyl)-1H-indol-3-yl]-3-(1H-indol-3-yl)-maleimide], the “fold increase in VEGF levels above basal” value with Medalist fibroblasts [1] (Medalist fibroblasts, inhibitor + 100 nM insulin (10 mM GFX or 3 uM rottlerin)) turned out to be 4.74±0.94 fold; in the assay on Medalist fibroblasts [1] (Medalist fibroblasts, inhibitor alone, no insulin (10 mM GFX or 3 uM rottlerin)), 2.55±0.43 fold.

Regarding `COc1cccc(-c2cc(=O)c3ccccc3o2)c1N` [PD98059], the “insulin-stimulated VEGF production” value in the assay on Medalist fibroblasts [1] (Medalist fibroblasts, 100 nM insulin in presence of 100 nM wortmanin or 10 μM PD98059) was “but not PD98059, significantly inhibited”.

In the case of `CC(=O)c1c(O)c(C)c(O)c(Cc2c(O)c3c(c(C(=O)/C=C/c4ccccc4)c2O)OC(C)(C)C=C3)c1O` [rottlerin, Rottlerin], the “fold increase in VEGF levels above basal” value in the assay with Medalist fibroblasts [1] (Medalist fibroblasts, inhibitor + 100 nM insulin (GFX or 3 uM rottlerin)) turned out to be 5.25±0.56 fold; with Medalist fibroblasts [1] (Medalist fibroblasts, inhibitor alone, no insulin (GFX or 3 uM rottlerin)), 3.74±0.49 fold.

Turning to TGF-β, the “VEGF induced by TGF-β” value in the assay on Medalist fibroblasts [2] is reported as “blunted”.

For the molecule `CN(C)C[C@@H]1CCn2cc(c3ccccc32)C2=C(C(=O)NC2=O)c2cn(c3ccccc23)CCO1` [RBX, Ruboxistaurin], in the assay on Medalist fibroblasts [1] (Medalist fibroblasts, 100 nM insulin with 100 nM RBX), the “insulin stimulated VEGF secretion” value is “failed to increase”.

For insulin, the “increase in VEGF mRNA” value in the assay with control fibroblasts [3] is recorded as 2.4 fold. Also, in the assay on Medalist fibroblasts [4], the “stimulation of VEGF mRNA production” value is reported as “failed to significantly stimulate”. Moreover, the “VEGF production, fold” value in the assay with control fibroblasts [5] (Ad-GFP infected control fibroblasts, with 100 nM insulin 16 hours) is given as 2.89±0.67 fold. In the assay with control fibroblasts [5] (fibroblasts from controls, 100 nM insulin), the “increase in VEGF protein levels” value is given as 66%. In addition, the “p-Tyr of the insulin receptor beta subunit, increase” value in the assay with control fibroblasts [6] worked out at 5.2 fold; with Medalist fibroblasts [7] (Medalists with CVD), 4.7 fold; with Medalist fibroblasts [7] (Medalists without CVD) it was 4.9 fold. In addition, the values for the cell migration in the assay on control fibroblasts [8] and with Medalist fibroblasts [9] were 1.7 fold and “failed to significantly increase”, respectively. Also, the “VEGF secretion, fold increase” value in the assay on Medalist fibroblasts [1] (Ad-GFP infected Medalist fibroblasts, with 100 nM insulin 16 hours) came to 1.51±0.18 fold. Also, the “VEGF secretion, fold increase above basal” value with Medalist fibroblasts [1] (Medalist fibroblasts, insulin alone, siRNA experiment) came to 1.28±0.10 fold. In addition, the “fold increase in VEGF levels above basal” value worked out at 1.59±0.10 fold in the assay on Medalist fibroblasts [1] (Medalist fibroblasts, 100 nM insulin alone, GFX experiment) and 1.50±0.31 fold in the assay with Medalist fibroblasts [1] (Medalist fibroblasts, 100 nM insulin alone, rottlerin experiment). Besides, the figures for the “VEGF protein levels after insulin stimulation” value in the assay on Medalist fibroblasts [1] (Medalists with CVD (basal 75.5±13.7)) and in the assay with Medalist fibroblasts [1] (Medalists without CVD (basal 57.5±8.5)) were 106.0±12.0 pg/mg protein and 99.1±8.4 pg/mg protein, respectively. For the same molecule, the “stimulation of VEGF protein” value with Medalist fibroblasts [1] (fibroblasts from Medalists, 100 nM insulin) is “failed to significantly stimulate”. Also, the “IRS1 tyrosine phosphorylation at site 649 (p-Tyr649), increase” value in the assay on control fibroblasts [10] is given as 53%; in the assay on Medalist fibroblasts [11] (setting [14]), 34%; in the assay with Medalist fibroblasts [11] (setting [15]), 63%. Also, the “IRS1 tyrosine phosphorylation at site 911 (p-Tyr911), increase” value was determined as 52% with control fibroblasts [10], 26% with Medalist fibroblasts [11] (setting [14]) and 40% with Medalist fibroblasts [11] (setting [15]). The p-AKT increase with control fibroblasts [12] (100 nM insulin 10 minutes (CVD comparison experiment)) turned out to be 4.0 fold; in the assay on Medalist fibroblasts [13] (setting [14]) it was 1.8 fold; in the assay on Medalist fibroblasts [13] (setting [15]), 2.4 fold. In addition, the “p-AKT increase compared to untreated cells” value in the assay on control fibroblasts [12] worked out at 3.6 fold; in the assay on Medalist fibroblasts [13], 2 fold.

B1: PDGF-BB: platelet-derived growth factor, 10 ng/ml stimulus (protein, UniProt P01127 82-190, looked up)
Platelet-derived growth …: SLGSLTIAEPAMIAECKTRTEVFEISRRLIDRTNANFLVWPPCVEVQRCSGCCNNRNVQCRPTQVQLRPVQVRKIEIVRKKPIFKKATVTLEDHLACKCETVAAARPVT
modifications: homodimer BB
notes: platelet-derived growth factor, 10 ng/ml stimulus
For the molecule B1, the cell migration entry with control fibroblasts [8] and with Medalist fibroblasts [9] was “increased cell migration significantly” each time. Also, the “p-AKT increase compared to untreated cells” value in the assay on control fibroblasts [12] and with Medalist fibroblasts [13] was 7 fold each time.
